Measurements reported in ChEMBL document CHEMBL1138068 (J Med Chem, 2006).
Activity calls are given as the source filed them. The calls are words filed in the database; no cut-off is given here.

How the values were obtained:
Cytochrome P450 2D6 = Cytochrome P450 2D6 (Homo sapiens, UniProt P10635); test: Inhibition of CYP2D6; assay type: ADME
[1] = target: Neuronal acetylcholine receptor subunit alpha-7 (Rattus norvegicus, UniProt Q05941); test: Displacement of [125I]alpha-BTX from alpha-7 nAChR in rat hippocampus membrane; assay type: cell membranes
Chain of Neuronal acetylcholine receptor subunit alpha-7 (Q05941 whole entry): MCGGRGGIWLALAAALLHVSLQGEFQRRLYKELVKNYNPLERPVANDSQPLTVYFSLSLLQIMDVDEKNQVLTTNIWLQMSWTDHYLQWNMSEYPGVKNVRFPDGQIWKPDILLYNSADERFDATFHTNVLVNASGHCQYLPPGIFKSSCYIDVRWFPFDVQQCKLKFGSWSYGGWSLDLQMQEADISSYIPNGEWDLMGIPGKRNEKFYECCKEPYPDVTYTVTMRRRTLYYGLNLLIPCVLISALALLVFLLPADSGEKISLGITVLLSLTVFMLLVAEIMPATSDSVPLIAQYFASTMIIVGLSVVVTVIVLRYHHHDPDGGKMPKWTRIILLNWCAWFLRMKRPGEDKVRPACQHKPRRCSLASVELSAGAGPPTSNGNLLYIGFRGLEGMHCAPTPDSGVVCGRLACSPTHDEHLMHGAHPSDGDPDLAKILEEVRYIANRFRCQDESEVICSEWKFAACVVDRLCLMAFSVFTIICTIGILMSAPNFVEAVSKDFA

[2] = target: Neuronal acetylcholine receptor subunit alpha-7 (Homo sapiens) (UniProt P36544); test: Activity at alpha-7 nAChR assessed as stimulation of relative inward current in cultured hippocampal neurons relative to choline; assay type: functional, tissue-based; conditions: Hippocampus
Chain of Neuronal acetylcholine receptor subunit alpha-7 (Homo sapiens) (P36544 whole entry): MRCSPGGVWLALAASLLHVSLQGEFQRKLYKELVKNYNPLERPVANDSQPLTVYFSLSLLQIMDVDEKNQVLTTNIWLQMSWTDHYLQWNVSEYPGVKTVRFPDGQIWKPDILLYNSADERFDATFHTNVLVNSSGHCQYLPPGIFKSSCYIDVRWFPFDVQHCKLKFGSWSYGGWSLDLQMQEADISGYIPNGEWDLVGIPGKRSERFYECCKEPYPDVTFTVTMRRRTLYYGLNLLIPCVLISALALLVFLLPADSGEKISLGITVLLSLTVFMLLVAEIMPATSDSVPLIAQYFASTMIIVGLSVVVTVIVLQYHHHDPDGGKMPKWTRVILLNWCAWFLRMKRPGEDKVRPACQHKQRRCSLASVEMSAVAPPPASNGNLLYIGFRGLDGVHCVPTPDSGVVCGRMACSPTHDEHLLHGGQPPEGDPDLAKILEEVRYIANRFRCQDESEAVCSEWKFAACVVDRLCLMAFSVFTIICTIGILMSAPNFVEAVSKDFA

[3] = AUC (0-infinity) in monkey at 3 mg/kg, po; assay type: ADME, organism-based, Macaca mulatta; set-up: time infinity, dose 3 mg/kg, route oral; conditions: rhesus monkey, plasma
[4] = target: Serotonin 2 (5-HT2) receptor (Homo sapiens, UniProt P41595+P28223+P28335); test: Binding affinity to 5HT2 receptor; assay type: protein assay
Rattus norvegicus [5] = test: Reverse activity against scopolamine-induced impairment of cognitive performance in Wistar rat at 10 mg/kg, po by 8-arm radial maze task method; assay type: functional, organism-based; set-up: dose 10 mg/kg
[6] = target: 5-hydroxytryptamine receptor 1A (Homo sapiens, UniProt P08908); test: Binding affinity to 5HT1A receptor
[7] = Volume of distribution in rat at 3 mg/kg, iv; assay type: ADME, organism-based; set-up: dose 3 mg/kg, route intravenous; conditions: in vivo, read-out: Vss
Cytochrome P450 1A2 = Cytochrome P450 1A2 (Homo sapiens, UniProt P05177); test: Inhibition of CYP1A2; assay type: ADME
Chain of Cytochrome P450 1A2 (P05177 whole entry): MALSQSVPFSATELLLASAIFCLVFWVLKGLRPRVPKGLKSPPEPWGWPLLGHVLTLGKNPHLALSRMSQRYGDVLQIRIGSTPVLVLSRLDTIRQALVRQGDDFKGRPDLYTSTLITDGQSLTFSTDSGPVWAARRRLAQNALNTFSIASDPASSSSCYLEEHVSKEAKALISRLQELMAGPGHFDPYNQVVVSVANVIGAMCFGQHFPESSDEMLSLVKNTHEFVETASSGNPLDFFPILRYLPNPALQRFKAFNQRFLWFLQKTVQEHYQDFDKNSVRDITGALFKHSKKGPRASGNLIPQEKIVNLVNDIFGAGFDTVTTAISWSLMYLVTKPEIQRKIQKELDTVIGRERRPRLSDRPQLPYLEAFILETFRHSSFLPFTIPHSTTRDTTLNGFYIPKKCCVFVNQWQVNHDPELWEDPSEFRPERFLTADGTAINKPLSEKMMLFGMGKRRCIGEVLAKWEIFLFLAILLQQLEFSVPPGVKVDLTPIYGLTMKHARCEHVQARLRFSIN

D(1A) dopamine receptor = D(1A) dopamine receptor (Homo sapiens, UniProt P21728); test: Binding affinity to D1 receptor
Chain of D(1A) dopamine receptor (P21728 whole entry): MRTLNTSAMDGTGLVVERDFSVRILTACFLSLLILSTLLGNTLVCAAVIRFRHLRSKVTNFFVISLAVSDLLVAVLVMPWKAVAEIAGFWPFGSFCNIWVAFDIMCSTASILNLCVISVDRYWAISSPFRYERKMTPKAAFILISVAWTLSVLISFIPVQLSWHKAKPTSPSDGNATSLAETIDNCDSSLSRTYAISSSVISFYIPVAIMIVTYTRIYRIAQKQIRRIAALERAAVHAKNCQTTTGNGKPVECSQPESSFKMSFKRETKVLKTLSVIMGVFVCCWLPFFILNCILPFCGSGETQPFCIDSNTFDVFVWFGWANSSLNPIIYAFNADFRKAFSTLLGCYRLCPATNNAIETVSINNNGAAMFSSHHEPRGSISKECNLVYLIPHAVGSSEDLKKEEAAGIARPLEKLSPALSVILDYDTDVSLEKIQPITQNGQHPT

[8] = Cmax in monkey at 3 mg/kg, po; assay type: ADME, organism-based, Macaca mulatta; set-up: dose 3 mg/kg, route oral; conditions: rhesus monkey, in vivo
Rattus norvegicus [9] = test: Increase in extracellular dopamine level in Wistar rat medial prefrontal cortex at 30 mg/kg, po; assay type: functional, organism-based; set-up: dose 30 mg/kg
[10] = Oral bioavailability in monkey at 1 mg/kg, po; assay type: ADME, organism-based, Macaca mulatta; conditions: rhesus monkey, in vivo
[11] = Half life in rat at 10 mg/kg, po; assay type: ADME, organism-based; set-up: dose 10 mg/kg, route oral; conditions: in vivo
[12] = Tmax in monkey at 3 mg/kg, iv; assay type: ADME, organism-based, Macaca mulatta; set-up: dose 3 mg/kg, route intravenous; conditions: rhesus monkey, in vivo
Rattus norvegicus [13] = test: Increase in extracellular dopamine level in Wistar rat medial prefrontal cortex at 10 mg/kg, po; assay type: functional, organism-based; set-up: dose 10 mg/kg
[14] = Half life in monkey at 10 mg/kg, po; assay type: ADME, organism-based, Macaca mulatta; set-up: dose 10 mg/kg, route oral; conditions: rhesus monkey, in vivo
[15] = Tmax in monkey at 1 mg/kg, po; assay type: ADME, organism-based, Macaca mulatta; set-up: dose 1 mg/kg, route oral; conditions: rhesus monkey, in vivo
[16] = target: 5-hydroxytryptamine receptor 3A (Cavia porcellus) (UniProt O70212); test: Antagonist activity against 5HT3 receptor assessed as inhibition of 5HT-induced contraction of guinea pig ileum; assay type: functional, tissue-based
[17] = AUC (0-infinity) in rat at 30 mg/kg, po; assay type: ADME, organism-based; set-up: time infinity, dose 30 mg/kg, route oral; conditions: plasma
Histamine H1 receptor = Histamine H1 receptor (Homo sapiens, UniProt P35367); test: Binding affinity to histamine H1 receptor
[18] = Oral bioavailability in monkey at 10 mg/kg, po; assay type: ADME, organism-based, Macaca mulatta; conditions: rhesus monkey, in vivo
[19] = Oral bioavailability in monkey at 3 mg/kg, po; assay type: ADME, organism-based, Macaca mulatta; conditions: rhesus monkey, in vivo
[20] = Tmax in monkey at 10 mg/kg, po; assay type: ADME, organism-based, Macaca mulatta; set-up: dose 10 mg/kg, route oral; conditions: rhesus monkey, in vivo
Cytochrome P450 3A4 = Cytochrome P450 3A4 (Homo sapiens, UniProt P08684); test: Inhibition of CYP3A4; assay type: ADME
[21] = Tmax in rat at 30 mg/kg, po; assay type: ADME, organism-based; set-up: dose 30 mg/kg, route oral; conditions: in vivo
Rattus norvegicus [22] = test: Effect on MK-801-induced sensory gating in Wistar rat at 1 mg/kg, sc; assay type: functional, organism-based; set-up: dose 1 mg/kg
Adrenergic receptor beta = Adrenergic receptor beta (Homo sapiens, UniProt P08588+P07550+P13945); test: Binding affinity to adrenergic beta receptor; assay type: protein assay
[23] = Volume of distribution in monkey at 3 mg/kg, iv; assay type: ADME, organism-based, Macaca mulatta; set-up: dose 3 mg/kg, route intravenous; conditions: rhesus monkey, in vivo, read-out: Vss
[24] = Clearance in rat at 3 mg/kg, iv; assay type: ADME, organism-based; set-up: dose 3 mg/kg, route intravenous; conditions: in vivo
Rattus norvegicus [25] = test: Reverse activity against scopolamine-induced impairment of cognitive performance in Wistar rat at 3 mg/kg, po by 8-arm radial maze task method; assay type: functional, organism-based; set-up: dose 3 mg/kg
[26] = AUC (0-infinity) in monkey at 3 mg/kg, iv; assay type: ADME, organism-based, Macaca mulatta; set-up: dose 3 mg/kg, route intravenous, time infinity; conditions: rhesus monkey, plasma
D(3) dopamine receptor = D(3) dopamine receptor (Homo sapiens, UniProt P35462); test: Binding affinity to D3 receptor
Chain of D(3) dopamine receptor (P35462 whole entry): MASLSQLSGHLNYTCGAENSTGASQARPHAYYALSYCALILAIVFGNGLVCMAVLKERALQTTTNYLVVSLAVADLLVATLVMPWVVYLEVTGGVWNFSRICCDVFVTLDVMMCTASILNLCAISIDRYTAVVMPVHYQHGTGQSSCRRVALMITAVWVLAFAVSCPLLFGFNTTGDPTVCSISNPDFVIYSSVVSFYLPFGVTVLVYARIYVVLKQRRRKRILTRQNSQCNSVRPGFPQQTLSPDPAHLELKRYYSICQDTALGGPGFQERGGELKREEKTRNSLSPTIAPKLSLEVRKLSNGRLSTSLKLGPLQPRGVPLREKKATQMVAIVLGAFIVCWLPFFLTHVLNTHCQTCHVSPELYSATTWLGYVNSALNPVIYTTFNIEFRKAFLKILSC

[27] = target: Glutamate [NMDA] receptor; test: Binding affinity to NMDA receptor glycine site; assay type: protein-complex assay, Homo sapiens
Cytochrome P450 2C9 = Cytochrome P450 2C9 (Homo sapiens, UniProt P11712); test: Inhibition of CYP2C9; assay type: ADME
Chain of Cytochrome P450 2C9 (P11712 whole entry): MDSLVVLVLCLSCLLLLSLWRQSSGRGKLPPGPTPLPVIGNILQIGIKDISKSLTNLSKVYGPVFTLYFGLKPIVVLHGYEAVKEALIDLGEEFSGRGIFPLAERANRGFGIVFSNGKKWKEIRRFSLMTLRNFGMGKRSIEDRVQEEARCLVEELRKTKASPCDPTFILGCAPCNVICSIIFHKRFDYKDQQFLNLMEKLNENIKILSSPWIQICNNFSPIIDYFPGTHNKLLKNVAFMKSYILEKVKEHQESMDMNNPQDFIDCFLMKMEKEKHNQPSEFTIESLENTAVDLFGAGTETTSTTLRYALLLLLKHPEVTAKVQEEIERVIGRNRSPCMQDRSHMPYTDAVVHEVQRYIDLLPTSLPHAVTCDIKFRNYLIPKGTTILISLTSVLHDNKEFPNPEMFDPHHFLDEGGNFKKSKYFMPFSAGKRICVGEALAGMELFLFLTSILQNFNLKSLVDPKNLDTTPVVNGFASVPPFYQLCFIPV

[28] = Half life in monkey at 1 mg/kg, po; assay type: ADME, organism-based, Macaca mulatta; set-up: dose 1 mg/kg, route oral; conditions: rhesus monkey, in vivo
[29] = Tmax in rat at 10 mg/kg, po; assay type: ADME, organism-based; set-up: dose 10 mg/kg, route oral; conditions: in vivo
[30] = Permeability in rat assessed as ratio of concentration in brain to plasma at 10 mg/kg, po; assay type: ADME, organism-based; set-up: dose 10 mg/kg, route oral; conditions: brain and plasma, read-out: BBR
[31] = Oral bioavailability in rat at 30 mg/kg, po; assay type: ADME, organism-based; conditions: in vivo
[32] = Half life in rat at 30 mg/kg, po; assay type: ADME, organism-based; set-up: dose 30 mg/kg, route oral; conditions: in vivo
[33] = target: Glutamate receptor ionotropic AMPA (Homo sapiens, UniProt P42261+P42262+P42263+P48058); test: Binding affinity to AMPA receptor; assay type: protein-complex assay
[34] = AUC (0-infinity) in rat at 10 mg/kg, po; assay type: ADME, organism-based; set-up: time infinity, dose 10 mg/kg, route oral; conditions: plasma
[35] = target: Serotonin 3 (5-HT3) receptor; test: Binding affinity to 5HT3 receptor; assay type: protein-complex assay, Homo sapiens
Histamine H3 receptor = Histamine H3 receptor (Homo sapiens, UniProt Q9Y5N1); test: Binding affinity to histamine H3 receptor
Chain of Histamine H3 receptor (Q9Y5N1 whole entry): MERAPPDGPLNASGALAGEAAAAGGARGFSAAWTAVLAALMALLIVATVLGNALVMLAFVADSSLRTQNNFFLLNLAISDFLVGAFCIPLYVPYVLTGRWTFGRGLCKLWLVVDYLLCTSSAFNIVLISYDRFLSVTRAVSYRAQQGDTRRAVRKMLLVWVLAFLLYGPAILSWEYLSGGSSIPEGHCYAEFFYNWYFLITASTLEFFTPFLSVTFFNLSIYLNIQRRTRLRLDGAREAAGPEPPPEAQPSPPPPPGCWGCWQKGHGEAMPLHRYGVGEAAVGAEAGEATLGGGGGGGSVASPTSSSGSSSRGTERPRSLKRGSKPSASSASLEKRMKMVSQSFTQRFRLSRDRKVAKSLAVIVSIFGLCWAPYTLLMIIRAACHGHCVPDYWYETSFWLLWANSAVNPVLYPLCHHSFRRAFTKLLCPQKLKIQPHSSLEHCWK

[36] = Cmax in rat at 10 mg/kg, po; assay type: ADME, organism-based; set-up: dose 10 mg/kg, route oral; conditions: in vivo
[37] = Cmax in monkey at 1 mg/kg, po; assay type: ADME, organism-based, Macaca mulatta; set-up: dose 1 mg/kg, route oral; conditions: rhesus monkey, in vivo
Cytochrome P450 2C19 = Cytochrome P450 2C19 (Homo sapiens, UniProt P33261); test: Inhibition of CYP2C19; assay type: ADME
Chain of Cytochrome P450 2C19 (P33261 whole entry): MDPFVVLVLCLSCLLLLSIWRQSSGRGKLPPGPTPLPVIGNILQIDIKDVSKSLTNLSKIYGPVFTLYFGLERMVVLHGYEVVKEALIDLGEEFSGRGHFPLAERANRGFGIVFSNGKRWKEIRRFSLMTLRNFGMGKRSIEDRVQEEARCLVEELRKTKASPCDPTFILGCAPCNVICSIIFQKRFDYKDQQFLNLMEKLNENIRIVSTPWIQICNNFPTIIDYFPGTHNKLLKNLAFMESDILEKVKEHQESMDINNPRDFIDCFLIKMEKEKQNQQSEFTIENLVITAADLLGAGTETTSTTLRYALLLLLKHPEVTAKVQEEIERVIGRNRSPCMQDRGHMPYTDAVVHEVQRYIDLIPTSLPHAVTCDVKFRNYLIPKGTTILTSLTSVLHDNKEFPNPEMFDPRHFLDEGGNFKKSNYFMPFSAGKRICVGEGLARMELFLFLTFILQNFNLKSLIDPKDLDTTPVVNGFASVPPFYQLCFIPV

D(4) dopamine receptor = D(4) dopamine receptor (Homo sapiens, UniProt P21917); test: Binding affinity to D4 receptor
Chain of D(4) dopamine receptor (P21917 whole entry): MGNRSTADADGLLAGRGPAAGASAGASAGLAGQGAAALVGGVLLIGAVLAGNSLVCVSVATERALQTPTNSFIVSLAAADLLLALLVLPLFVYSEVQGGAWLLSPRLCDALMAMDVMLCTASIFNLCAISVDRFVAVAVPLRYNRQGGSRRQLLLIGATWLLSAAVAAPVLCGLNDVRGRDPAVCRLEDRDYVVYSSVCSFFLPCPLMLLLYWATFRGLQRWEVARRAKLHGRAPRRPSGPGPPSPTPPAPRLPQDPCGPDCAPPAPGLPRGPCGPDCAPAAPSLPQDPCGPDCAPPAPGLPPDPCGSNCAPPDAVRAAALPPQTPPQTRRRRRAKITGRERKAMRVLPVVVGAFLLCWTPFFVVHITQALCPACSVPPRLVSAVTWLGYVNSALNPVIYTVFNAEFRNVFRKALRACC

[38] = Cmax in monkey at 10 mg/kg, po; assay type: ADME, organism-based, Macaca mulatta; set-up: dose 10 mg/kg, route oral; conditions: rhesus monkey, in vivo
[39] = target: Muscarinic acetylcholine receptor; test: Binding affinity to muscarinic receptor; assay type: protein assay, Homo sapiens
[40] = Tmax in monkey at 3 mg/kg, po; assay type: ADME, organism-based, Macaca mulatta; set-up: dose 3 mg/kg, route oral; conditions: rhesus monkey, in vivo
[41] = Half life in monkey at 3 mg/kg, po; assay type: ADME, organism-based, Macaca mulatta; set-up: dose 3 mg/kg, route oral; conditions: rhesus monkey, in vivo
[42] = target: Adrenergic receptor alpha-2 (Homo sapiens, UniProt P08913+P18825+P18089); test: Binding affinity to adrenergic alpha2 receptor; assay type: protein assay
[43] = target: Glutamate [NMDA] receptor; test: Binding affinity to NMDA receptor PCP site; assay type: protein-complex assay, Homo sapiens
[44] = target: Neuronal acetylcholine receptor; alpha4/beta2 (Rattus norvegicus, UniProt P09483+P12390); test: Inhibition of [3H]Cytisine binding to alpha-4-beta-2 nACh receptor in rat cerebral cortex membrane; assay type: cell membranes
D(2) dopamine receptor = D(2) dopamine receptor (Homo sapiens, UniProt P14416); test: Binding affinity to D2 receptor
[45] = Half life in monkey at 3 mg/kg, iv; assay type: ADME, organism-based, Macaca mulatta; set-up: dose 3 mg/kg, route intravenous; conditions: rhesus monkey, in vivo
[46] = AUC (0-infinity) in monkey at 1 mg/kg, po; assay type: ADME, organism-based, Macaca mulatta; set-up: time infinity, dose 1 mg/kg, route oral; conditions: rhesus monkey, plasma
[47] = Cmax in rat at 30 mg/kg, po; assay type: ADME, organism-based; set-up: dose 30 mg/kg, route oral; conditions: in vivo
[48] = Oral bioavailability in rat at 10 mg/kg, po; assay type: ADME, organism-based; conditions: in vivo
[49] = AUC (0-infinity) in monkey at 10 mg/kg, po; assay type: ADME, organism-based, Macaca mulatta; set-up: time infinity, dose 10 mg/kg, route oral; conditions: rhesus monkey, plasma
[50] = target: Adrenergic receptor alpha-1 (Homo sapiens, UniProt P35348+P25100+P35368); test: Binding affinity to adrenergic alpha-1 receptor; assay type: protein assay
[51] = Clearance in monkey at 3 mg/kg, iv; assay type: ADME, organism-based, Macaca mulatta; set-up: dose 3 mg/kg, route intravenous; conditions: rhesus monkey, in vivo
[52] = Half life in rat at 3 mg/kg, iv; assay type: ADME, organism-based; set-up: dose 3 mg/kg, route intravenous; conditions: in vivo
[53] = Cmax in monkey at 3 mg/kg, iv; assay type: ADME, organism-based, Macaca mulatta; set-up: dose 3 mg/kg, route intravenous; conditions: rhesus monkey, in vivo

Chain of Cytochrome P450 2D6 (P10635 whole entry): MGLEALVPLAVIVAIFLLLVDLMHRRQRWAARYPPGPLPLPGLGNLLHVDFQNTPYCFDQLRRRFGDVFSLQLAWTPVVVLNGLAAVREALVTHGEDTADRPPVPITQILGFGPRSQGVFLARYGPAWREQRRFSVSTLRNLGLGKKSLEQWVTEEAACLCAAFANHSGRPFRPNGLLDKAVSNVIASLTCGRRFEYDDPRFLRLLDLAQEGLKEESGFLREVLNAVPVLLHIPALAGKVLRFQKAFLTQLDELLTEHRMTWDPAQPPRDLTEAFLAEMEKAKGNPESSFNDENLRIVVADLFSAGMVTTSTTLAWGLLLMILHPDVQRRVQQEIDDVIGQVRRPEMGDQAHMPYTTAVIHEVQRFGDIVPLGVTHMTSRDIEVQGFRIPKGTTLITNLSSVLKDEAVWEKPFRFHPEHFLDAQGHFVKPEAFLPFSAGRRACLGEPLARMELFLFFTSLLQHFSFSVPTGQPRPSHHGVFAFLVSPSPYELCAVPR

Cc1cc2cc(N3C[C@@]4(CN5CCC4CC5)OC3=O)ccc2s1
IC50 (Cytochrome P450 2D6): > 30 µM

O=C1O[C@@]2(CN3CCC2CC3)CN1c1ccc(Br)s1
IC50 (Cytochrome P450 2D6): 9 µM
Ki [1]: 0.004 µM

Cc1oc2ccc(N3C[C@@]4(CN5CCC4CC5)OC3=O)cc2c1Br
Ki [1]: 0.011 µM

CCc1cc2cc(N3C[C@@]4(CN5CCC4CC5)OC3=O)ccc2s1
IC50 (Cytochrome P450 2D6): > 30 µM
Ki [1]: 0.135 µM

O=C1NCC2(CN3CCC2CC3)O1 (single isomer, unassigned)
Activity ([2]; filed as agonist): Agonist

Cc1coc2ccc(N3C[C@@]4(CN5CCC4CC5)OC3=O)cc12
AUC(0-inf) [3]: 387 ng·h/mL
IC50 [4]: > 10 µM
Activity (Rattus norvegicus [5]): Dose-dependent effect
IC50 [6]: > 10 µM
Vd [7]: 7.59 L/kg
Activity (Cytochrome P450 1A2): Not Active
IC50 (D(1A) dopamine receptor): > 10 µM
Cmax [8]: 75.5 ng/mL
Activity (Rattus norvegicus [9]): Active
bioavailability [10]: 25.8%
half-life [11]: 3 h
Tmax [12]: 0.36 h
Activity (Rattus norvegicus [13]): Active
half-life [14]: 6 h
Tmax [15]: 2 h
Activity [16]: Active
AUC(0-inf) [17]: 1010 ng·h/mL
IC50 (Histamine H1 receptor): > 10 µM
bioavailability [18]: 82.8%
bioavailability [19]: 57.2%
Tmax [20]: 2.3 h
Activity (Cytochrome P450 3A4): Not Active
Tmax [21]: 0.38 h
Activity (Rattus norvegicus [22]): Active
IC50 (Adrenergic receptor beta): > 10 µM
Vd [23]: 10.7 L/kg
clearance [24]: 83.3 mL/min/kg
Activity (Rattus norvegicus [25]): Dose-dependent effect
AUC(0-inf) [26]: 732 ng·h/mL
IC50 (D(3) dopamine receptor): > 10 µM
IC50 [27]: > 10 µM
Activity (Cytochrome P450 2C9): Not Active
half-life [28]: 4.2 h
Tmax [29]: 0.44 h
Kp [30]: 10.2
bioavailability [31]: 17.3%
half-life [32]: 1.7 h
IC50 [33]: > 10 µM
AUC(0-inf) [34]: 225 ng·h/mL
IC50 [35]: 0.01 µM
IC50 (Cytochrome P450 2D6): > 30 µM
IC50 (Histamine H3 receptor): > 10 µM
Cmax [36]: 120 ng/mL
Cmax [37]: 9.1 ng/mL
Activity (Cytochrome P450 2C19): Not Active
Activity ([2]; filed as partial agonist): Partial agonist
IC50 (D(4) dopamine receptor): > 10 µM
Cmax [38]: 384 ng/mL
IC50 [39]: > 10 µM
Tmax [40]: 3.3 h
Ki [1]: 0.003 µM
half-life [41]: 5.4 h
IC50 [42]: > 10 µM
IC50 [43]: > 10 µM
IC50 [44]: > 10 µM
IC50 (D(2) dopamine receptor): > 10 µM
half-life [45]: 1.9 h
AUC(0-inf) [46]: 63 ng·h/mL
Cmax [47]: 618 ng/mL
bioavailability [48]: 10.5%
AUC(0-inf) [49]: 2020 ng·h/mL
IC50 [50]: > 10 µM
clearance [51]: 70.2 mL/min/kg
half-life [52]: 3.3 h
Cmax [53]: 288 ng/mL
